In ChEMBL document CHEMBL1136040, “Specific accumulation and growth inhibitory effects of hybrid liposomes to hepatoma cells in vitro” (Bioorg Med Chem Lett, 2002):

Tested on: HepG2
Experiment: Compound was tested for its inhibition on growth of human hepatoma cells (Hep-G2); No inhibitory effects was observed
Assay type: functional, cell-based

| Structure (SMILES) | inhibition |
| --- | --- |
| CCCCCCCCCCCCCC(=O)OCC(COP(=O)([O-])OCC[N+](C)(C)C)OC(=O)CCCCCCCCCCCNc1ccc([N+](=O)[O-])c2nonc12 (configuration not stated) | No inhibition |
| CCCCCCCCCCCCCC(=O)OCC(COP(=O)([O-])OCC[N+](C)(C)C)OC(=O)CCCCCCCCCCCCC (configuration not stated) | No inhibition |
